Data reported in US20220370636A1, “NICOTINAMIDE ADENINE DINUCLEOTIDE ACTIVATOR AND USE THEREOF” (University of South Florida, priority 2021, published 2022).

Key:
[1] = tested on: C57BL6 mice tibialis anterior muscle; assay: BaCl2 induced tibialis anterior muscle injury in mice; assay type: in vivo
Description: Saline or 50 μl of 1% BaCl2 was injected in belly region of the muscle to induce inflammation. Muscle damage was assessed by H&E staining at day 7. The percentage of fibers recovered in higher in P7C3 treated group compared with saline treated group (FIG. 1B). The centrally placed nuclei were higher in P7C3 treated group with 3 or higher number of nuclei (FIG. 1C).
P7C3 administration (1 wk, 5 mg/kg bodyweight/day, i.p.) rescued tibialis anterior muscle injury induced by BaCl2 in mice. Administration of P7C3 increased frequency of myofiber number and fusion index as noted by increased centrally-nucleated fibers (FIGS. 1A-1C). Overall, these show the use P7C3, and the efficacy of P7C3 as a drug for muscle repair.

[2] = tested on: C2C12 cells; assay: LPS induced LDH release in C2C12 skeletal myotubes; assay type: cell-based, mouse; conditions: P7C3 1 μM 24 hours
[3] = tested on: RAW264.7 cells; assay: qRT-PCR of inflammatory genes in LPS-treated RAW264.7 cells; assay type: cell-based; conditions: LPS 1 μg/ml + P7C3 1 μM, 24 hours
Description: FIGS. 2A and 2B show macrophage: LPS induced inflammation and recovery via P7 markers such as NF-κb, IL-1β, IL-6. […] RAW264.7 cells was treated with LPS (1 μg/ml) and P7C3 (1 μM) for 24 hours. The isolated mRNA was subjected qRT-PCR using iScript cDNA Synthesis Kit (Bio-Rad, Cat #: 1706691) and iTaq Universal SYBR Green Supermix (Bio-Rad, Cat #: 1725121) in iCycler iQ Real Time PCR Detection System (Bio-Rad). The value of 2^-ΔΔCt was calculated and expressed as a Mean±SEM (n=6). The statistical analysis was performed using two-way ANOVA with Tukey's multiple comparisons test in GraphPad Prism 8.4.3, and p≤0.05 was considered statistically significant. […]

[4] = target: T1, Nampt (Mus musculus, UniProt Q99KQ4); assay: Cardiac Nampt enzymatic activity in db/db mice; assay type: in vivo; conditions: 10 mg/kg body weight/day, i.p., four-week, vs vehicle
T1 construct: from tissue; host or cells: whole heart homogenate of db/db mice
Source text: Nampt enzymatic activity.

[5] = tested on: db/db mice; assay: Fasting blood glucose and GTT in db/db mice (Example 5); assay type: in vivo
Source text: Fasting blood glucose. Mice were fasted overnight, and the tail vein blood was used for measuring the blood glucose levels of the diabetic mice treated with either Vehicle (db/db Veh) or P7C3 (db/db P7C3) for 4 weeks.
Glucose tolerance test. […] Blood samples were obtained by the submandibular puncture technique.

[6] = tested on: db/db mice hearts; assay: Western blotting of db/db heart lysates; assay type: in vivo; conditions: vs vehicle
Description: Western blotting. For studies aimed to assess the insulin stimulated AKT phosphorylation, following four-week P7C3 treatment, mice were injected with Novolin R human insulin (1 Unit/kg body weight, i.p.), and hearts were collected after 5 minutes for Western blot analysis. Protein lysates for Western blotting were prepared from mouse hearts as described previously. Equivalent amounts of protein were loaded and resolved using 12% precast polyacrylamide gels (BioRad, CA, USA). Successful transfer of proteins was detected using Ponceau S (Sigma-Aldrich, MO, USA), and blots were probed with mouse monoclonal primary antibody for phospho AKT^ser473 (p-AKT), total AKT (t-AKT), phospho eNOS^ser1177 (p-eNOS), total eNOS (t-eNOS), Beclin1, and GAPDH (Cell signaling, MA, USA). HRP conjugated Rabbit anti-mouse antibody (Millipore) was used as a secondary antibody. Target protein band densities were quantified using Image J software.

[7] = tested on: Sirt1; assay: Sirt1 deacetylase activity in db/db heart lysates; assay type: in vivo, mice; conditions: vs vehicle controls
Description: Sirt1 deacetylase activity. Sirt1 deacetylase activity was measured in the whole heart lysates from the vehicle and P7C3 treated db/db mice according to the manufacturer's protocol using a deacetylase fluorometric assay kit (Sigma-Aldrich, MO, USA). The fluorescence intensity was measured at 440 nm (excitation, 340 nm).

[8] = tested on: db/db mice hearts; assay: Pyridine nucleotide measurements in db/db hearts; assay type: in vivo; conditions: vs vehicle control
Description: Pyridine nucleotide measurements. NADH/NAD^+ ratios were determined in frozen db/db heart tissues (from the vehicle and P7C3 treated mice) using commercially available EnzyChrome kit (Bioassays, Hayward, Calif., USA) as reported before. Following manufacturer's instructions, cardiac tissue was homogenized in 100 μl of NAD^+ or NADH extraction buffer for NAD^+ and NADH determination, respectively. Samples were heated at 60° C. for 5 minutes on a heat block and neutralized by adding 100 μl of the opposite extraction buffer. Samples were then mixed by brief vortexing and centrifuged at 14,000 rpm for 5 minutes. 40 μl of supernatant from each sample was dispensed in duplicates in a 96-well plate, and 80 μl of working reagent constituted with supplier provided assay buffer, lactate dehydrogenase, lactate and MTT reagent was added to each well. Samples were gently mixed and optical density at 565 nm was acquired immediately (0 min) and after 15 minutes, at room temperature using a microplate reader. A standard curve was utilized for calculating NADH/NAD^+ levels in each sample.

[9] = In vitro drug release by membrane dialysis; conditions: PBS pH 7.4, 37° C.
Description: In vitro Drug Release. Membrane dialysis method was used to investigate the drug release profile of P7C3 from the NPs. A 0.5 mL sample volume of aptamer conjugated, and non-conjugated P7C3 NPs was filled in dialysis cassettes (MWCO 14 KDa) and placed in 50 mL of PBS (pH 7.4) release medium with stirring at 100 rpm and temperature of 37° C. At predetermined time intervals, 1 mL sample volume of release media was removed, and the release study was continued for 7 days.

[10] = mice, 1 wk, 5 mg/kg bodyweight/day, i.p.

T1 sequence (Q99KQ4 whole entry): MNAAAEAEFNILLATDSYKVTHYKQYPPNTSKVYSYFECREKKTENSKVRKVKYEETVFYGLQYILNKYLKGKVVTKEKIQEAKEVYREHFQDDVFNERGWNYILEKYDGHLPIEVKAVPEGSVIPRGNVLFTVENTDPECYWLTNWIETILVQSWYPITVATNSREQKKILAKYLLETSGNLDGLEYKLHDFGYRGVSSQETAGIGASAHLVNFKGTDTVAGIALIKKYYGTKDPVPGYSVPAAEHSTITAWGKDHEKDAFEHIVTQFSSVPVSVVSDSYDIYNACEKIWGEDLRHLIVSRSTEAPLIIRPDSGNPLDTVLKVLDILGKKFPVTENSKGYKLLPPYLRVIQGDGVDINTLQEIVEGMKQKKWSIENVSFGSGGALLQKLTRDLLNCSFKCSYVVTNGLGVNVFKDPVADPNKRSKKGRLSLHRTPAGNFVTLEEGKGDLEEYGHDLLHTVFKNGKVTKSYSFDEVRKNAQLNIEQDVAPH

Compound: OC(CNc1ccccc1)Cn1c2ccc(Br)cc2c2cc(Br)ccc21 (stereo not drawn) [P7C3, 3,6-Dibromo-a-[(phenylamino)methyl]-9H-carbazole-9-ethanol]
- percentage of fibers recovered ([1]; H&E staining at day 7, vs saline treated group): higher
- centrally placed nuclei (3 or higher number of nuclei) ([1]; day 7, vs saline treated group): higher
- frequency of myofiber number [1, 10]: increased
- fusion index (centrally-nucleated fibers) [1, 10]: increased
- tibialis anterior muscle injury induced by BaCl2 [1, 10]: rescued
- LPS induced LDH release (inflammation in vitro) [2]: attenuated
- IL-1β expression [3]: significantly decreased
- IL-6 expression [3]: decreased
- IL-10 expression [3]: decreased
- NF-κb expression [3]: significantly decreased
- TNFα expression [3]: significantly decreased
- cardiac Nampt activity [4]: significantly increased
- GTT decrease in circulating blood glucose from 30 minutes onwards ([5]; db/db, 4 weeks, between treatment groups): non-significant
- GTT area under curve ([5]; db/db, trapezium method, p=0.0021): significant difference
- fasting blood glucose levels ([5]; overnight fasted db/db, 10 mg/kg/day i.p., 4 weeks, vs vehicle): significant decrease
- p-AKT signaling in cardiac tissue ([6]; 10 mg/kg/day i.p.): significantly increased
- Beclin 1 protein expression [6]: significant increase
- p-eNOS levels in cardiac tissue [6]: significantly increased
- SiRT1 activity in cardiac tissue [7]: significant increase
- increase in cardiac NAD+/NADH ratio [8]: 2.5 fold
- cumulative drug release at day 1 (24 h) [9]: 100%
